The source of these data is paper PMC10784468 (Nature Communications, 2024).

Broadly, the Kd is the concentration at which binding is half-saturated. By IC50 is commonly meant the concentration that gives 50% inhibition.

In series [1] the test system is MCF-7/MDR xenograft tumors. Description: In vivo antitumor evaluation in MCF-7/MDR xenografted model. As to conditions: for mean tumor volume at 20 days post injection / TGI rate: MCF-7/MDR xenograft, Gi-F-CAA 8 mg/kg, DOX and CPT 3 mg/kg; for mean tumor volume at 20 days post injection: six i.v. injections every 2 days, n = 6; for TGI rate: six i.v. injections, 20 days. The source says:
Female BALB/c nude mice (~8 weeks, 18 g) were subcutaneously inoculated with 5 × 10^6 MCF-7/MDR cells resuspended in Matrigel. […] Individual tumor volume and bodyweight of mouse after different treatment was collected at 2-days intervals for analysis. Mice were killed at 20 days post treatment unless endpoints were exceeded. Moreover, tumors from all groups were harvested under euthanasia and weighed for analysis at the end of treatment.

Another series relates to 786-O xenograft tumors. Description: In vivo antitumor evaluation in large tumor model (786-O). The note with it: six i.v. injections at 2-days intervals, Gi-F-CAA 8 mg/kg, Bevacizumab 5 mg/kg. Also noted: species or system BALB/c nude mice.
In a further series the target is GPX4mu. The note with it: one-to-one binding; ref Biochemical and Biophysical Research Communications. 2017, 482, 195e201; cited from earlier work. The method, then:
page 12: Figure 9. […] The manuscript was revised accordingly. […] More explanation on this may be helpful. For instance, why small molecule inhibitors of GPX4 were not used? I suppose small molecules may penetrate tumor better since they are smaller. Beside ... || page 14: calculation of apparent Kd was added in the method section. Specifically, nanoparticles provide large surface area with exposed GPX4 target to achieve multivalent binding, which could remarkably enhance the binding affinity. This concept has been proven by several papers (Adv. Mater. 2023,35, 2211332; Adv Mater, 2023, doi: 10.1002/adma.202303831). […] Biophys. Res.

Series [2] has as its system GPX4. The note with it: ref Biochemical and Biophysical Research Communications. 2017, 482, 195e201, cited from earlier work; for GPX4 inhibitory effect at 100 μM: even at 100 μM. The source says: page 12: Figure 9. […] The manuscript was revised accordingly. […] More explanation on this may be helpful. For instance, why small molecule inhibitors of GPX4 were not used? I suppose small molecules may penetrate tumor better since they are smaller. Beside ...

The subject of series [3] is EJ cells. Description: Intracellular LPO content (MDA kit). It is filed as cell-based. Here is the method:
Initially, EJ cells (5 × 10^5) were cultured in 6-well plate with a CO2 incubator overnight at 37 °C. […] Next, EJ cells were collected and washed with PBS for 3 times. Afterwards, the cell lysates were collected by centrifugation at 8000 g for 10 min at 4 °C after lysed by freeze-thaw treatment. Finally, the LPO contents were measured by thiobarbituric acid (TBA) reaction with a Malondialdehyde (MDA) Assay Kit based on the manufacturer’s instructions.

The subject of series [4] is EJ cells. Briefly: Cytotoxicity assay (CCK-8) on EJ cells. The method, then: Initially, EJ cells were seeded into 96 well plates at a density of 5 × 10^3 per well and incubated in a CO2 incubator overnight at 37 °C. Subsequently, Gi-F (pH = 7.4), Gi-F-SA (pH = 7.4), NGi-F-CAA (pH = 7.4), NGi-F-CAA (pH = 6.5), Gi-F-CAA (pH = 7.4) and Gi-F-CAA (pH = 6.5) at different concentrations (1, 2, 4, 8, 16, 32, 64, 128 and 256 μM) was added to the cells and further incubated for 48 h. Finally, the cell viability rate was calculated by (Sample wells-Blank wells)/(Control wells-Blank wells) × 100%.

Series [5] has as its system EJ cells. Description: Intracellular GSH content detection. Format: cell-based. Here is the method:
Initially, EJ cells (5 × 10^5) were cultured in 6-well plate with a CO2 incubator overnight at 37 °C. […] Next, EJ cells were collected and washed with PBS for 3 times. Afterwards, the cell lysates were collected by centrifugation at 8000 g for 10 min at 4 °C after lysed by freeze-thaw treatment. Finally, the GSH contents were measured with a GSH Assay Kit based on the manufacturer’s instructions.

For series [6], the target named is T1, GPX4 (Homo sapiens, UniProt P36969).
T1 sequence (P36969 1-197): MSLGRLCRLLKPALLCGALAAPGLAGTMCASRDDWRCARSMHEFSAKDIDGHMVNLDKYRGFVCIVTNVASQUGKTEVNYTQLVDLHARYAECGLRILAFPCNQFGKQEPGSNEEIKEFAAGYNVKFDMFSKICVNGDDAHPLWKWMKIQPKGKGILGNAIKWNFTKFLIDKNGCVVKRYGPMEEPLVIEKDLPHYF
Description: Intracellular GPX4 activity detection. Also noted: endogenous in cells; host or cells: EJ bladder cancer cells. Format: cell-based. Here is the method: Initially, EJ cells (5 × 10^5) were cultured in 6-well plate with a CO2 incubator overnight at 37 °C. […] Next, EJ cells were collected and washed with PBS for 3 times. Afterwards, the cell lysates were collected by centrifugation at 5000 rpm for 10 min at 4 °C after ultrasonic lysis in an ice bath. Finally, the GPX4 activity were measured with a GPX Assay Kit based on the manufacturer’s instructions.

The subject of series [7] is EJ cells. Briefly: Intracellular Fe2+ ions detection. Format: cell-based. Here is the method: Initially, EJ cells (5 × 10^5) were cultured in confocal dish with a CO2 incubator overnight at 37 °C. […] Afterwards, EJ cells were washed with PBS for 3 times and replaced with culture mediums.
Another series is described as follows: ζ-potential in PBS. Format: physicochemical. As to conditions: 40 μM in PBS, pH 7.4; mean of n = 3. Here is the method: Supplementary Fig. 12. ζ-potential change of Gi-F-CAA (40 μM) in PBS (0.01 M, pH 7.4 or 6.5) (n=3
experimental repeats). Experiment was independently repeated three times with similar results. Values are
(1 picture or pasted object on this page, not shown here)
Supplementary Fig. 13. ζ-potential of NGi-F-CAA, Gi-F and Gi-F-SA (pH 7.4) (40 μM) in PBS (n=3

The target in a further series is T2, NGi-F-CAA (synthetic construct, cysteine pairing not given here; also: cis-aconitic anhydride on Lys).
T2 chain: FeTCPP-LKLKLK(CAA)GACLNWPYLPCPV
Description: MST.

Another series addresses T3, Gi-F nanoparticle (synthetic construct, disulfide 9-17 (inferred); also: self-assembled nanoparticle).
T3 chain: FeTCPP-LKLKLKGACNWLPLYPCPV
Description: MST.

Another series concerns the target T4, Gi-F-CAA (synthetic construct, disulfide 9-17 (inferred)).
T4 chain: FeTCPP-LKLKLK(CAA)GACNWLPLYPCPV
Briefly: MST.

Positions of bridges follow the written chain, without caps; N, C: chain ends. No end group written: not given here. FeTCPP = ferriporphyrin at the N-terminus; CAA = cis-aconitic anhydride moiety

Regarding `CC[C@@]1(O)C(=O)OCc2c1cc1n(c2=O)Cc2cc3ccccc3nc2-1` [CPT], in series [1], the “mean tumor volume at 20 days post injection” value was found to be 1095 mm^3. Besides, the TGI rate in series [1] is 39%. For the same molecule, the Tumor weight was determined as 0.95 g in series [1] (mice 1); 0.87 g in series [1] (mice 2); 1 g in series [1] (mice 3); 0.65 g in [1] (mice 4); 0.9 g in [1] (mice 5); 0.74 g in series [1] (mice 6).
Turning to `COc1cccc2c1C(=O)c1c(O)c3c(c(O)c1C2=O)C[C@@](O)(C(=O)CO)C[C@@H]3O[C@H]1C[C@H](N)[C@H](O)[C@H](C)O1` [DOX], in series [1], the “mean tumor volume at 20 days post injection” value stood at 1082 mm^3. Moreover, the TGI rate in series [1] is reported as 32%. In addition, the Tumor weight in series [1] (mice 1) was determined as 0.73 g; in series [1] (mice 2), 1.18 g; in series [1] (mice 4), 0.93 g; in [1] (mice 6) it was 0.69 g.
“Bevacizumab: clinical antitumor drug Avastin (Bevacizumab) [reference compound]”: in the series with 786-O xenograft tumors, the “tumor volume course in large tumors (~500 mm^3)” value was “temporary retarded growth and got out of control thereafter”.
Regarding CRAWYQNYCALRR [GXpep-2], the Kd at GPX4mu was 0.61 µM. Further, the “GPX4 inhibitory effect at 100 μM” value in the series on GPX4 [2] is given as “did not have an inhibitory effect”.
With CRVDLQGWRRCRR [GXpep-1], the Kd on GPX4mu is 1.8 µM. Besides, the “GPX4 inhibitory effect at 100 μM” value with GPX4 [2] was “did not have an inhibitory effect”.
“FeTCPP-LKLKLK(CAA)GACLNWPYLPCPV (disulfide) [NGi-F-CAA]”: the “Relative MDA levels” value in the series with EJ cells [3] (pH=7.4, replicate #1) is 0.76; in the series with EJ cells [3] (pH=7.4, replicate #2) it was 1.04; with EJ cells [3] (pH=7.4, replicate #3), 1.44. Moreover, the values for the IC50 with EJ cells [4] (pH 6.5) and in the series on EJ cells [4] (pH 7.4) were 111 µM and 155 µM, respectively. Moreover, the “Relative GSH levels” value with EJ cells [5] (pH=7.4, replicate #1) came out at 0.912; in the series with EJ cells [5] (pH=7.4, replicate #2) it was 0.883; in the series on EJ cells [5] (pH=7.4, replicate #3) it was 1.029. Also, the “Relative activity of GPX4” value with GPX4 [6] (EJ cells, 8 h, pH 7.4, PBS group normalized as 1, #1) turned out to be 0.95; with GPX4 [6] (EJ cells, 8 h, pH 7.4, PBS group normalized as 1, #2), 0.9; with GPX4 [6] (EJ cells, 8 h, pH 7.4, PBS group normalized as 1, #3), 1.02; with GPX4 [6] (pH=7.4, replicate #1), 0.94; in the series with GPX4 [6] (pH=7.4, replicate #2) it was 0.94; with GPX4 [6] (pH=7.4, replicate #3) it was 1. In addition, the “intracellular Fe^2+ (FerroOrange fluorescence), pH 7.4” value in the series with EJ cells [7] (EJ cells, pH 7.4, 8 h) is reported as “no remarkable fluorescence”. Also, the “Concentrations of Fe2+ ions” value came to 17.875 ng/104cells in the series on EJ cells [7] (pH=7.4, replicate #1); 15.309 ng/104cells in the series on EJ cells [7] (pH=7.4, replicate #2); 13.004 ng/104cells in the series on EJ cells [7] (pH=7.4, replicate #3). Also, the “Zeta potential (mV)” value in “ζ-potential in PBS” was -26.8 mV.
For “GACNWLPLYPCPV (disulfide 3-11 (inferred)) [GXpep-3]”, the Kd on GPX4mu was 8.2 µM. In addition, in the series with GPX4 [2] (read-out: IC50, GPX4 inhibitory activity), the 50% inhibitory concentration (IC50) was 10 µM.

B1: GPX4 (protein)
chain: SLGRLCRLLKPALLCGALAAPGLAGTMCASRDDWRCARSMHEFSAKDIDGHMVNLDKYRGFVCIVTNVASQUGKTEVNYTQLVDLHARYAECGLRILAFPCNQFGKQEPGSNEEIKEFAAGYNVKFDMFSKICVNGDDAHPLWKWMKIQPKGKGILGNAIKWNFTKFLIDKNGCVVKRYGPMEEPLVIEKDLPHYF
As to B1, the Kd in the series with NGi-F-CAA is ~17.6 µM; with Gi-F nanoparticle, ~0.0303 µM; in the series with Gi-F-CAA, ~1.68 µM.
